According to patent US10570129B2 (Zoetis Services LLC, priority 2015, dated 2020):

Columns and labels:
[1] = tested on: Haemonchus contortus L3; experiment: microbe, parasite or virus in culture; type: cell-based; conditions: Haemonchus contortus, 96 h, read-out: HcL3 Minimal Effective Concentration (MEC)
[2] = tested on: D. immitis microfilariae; experiment: Dirofilaria immitis, microfilariae (DiMF) in vitro motility assay; type: cell-based; conditions: Dirofilaria immitis, 72 h, read-out: DiMF minimally effective dose (MEC)

SMILES | minimal effective concentration [1] | minimal effective concentration [2]
O=C(NCc1ccnc(Cl)c1)n1c2c(c3ccc(Br)cc31)CN(C/C=C/c1ccc(Cl)c(F)c1)CC2 [Example 437, (E)-7-bromo-2-(3-(4-chloro-3-fluorophenyl)allyl)-N-((2-chloropyridin-4-yl)methyl)-1,2,3,4-tetrahydro-5H-pyrido[4,3-b]indole-5-carboxamide] | 1 µM | 10 µM
N#Cc1ccc(/C=C/CN2CCc3c(c4ccc(Br)cc4n3C(=O)NCc3ccnc(Cl)c3)C2)cc1F [Example 438, (E)-7-bromo-N-((2-chloropyridin-4-yl)methyl)-2-(3-(4-cyano-3-fluorophenyl)allyl)-1,2,3,4-tetrahydro-5H-pyrido[4,3-b]indole-5-carboxamide] | > 100 µM | 18.2 µM
O=C(NCc1ccnc(Cl)c1)n1c2c(c3ccc(Br)cc31)CN(C/C=C/c1ccc(F)c(Cl)c1)CC2 [Example 439, (E)-7-bromo-2-(3-(3-chloro-4-fluorophenyl)allyl)-N-((2-chloropyridin-4-yl)methyl)-1,2,3,4-tetrahydro-5H-pyrido[4,3-b]indole-5-carboxamide] | 1.8 µM | 18.2 µM
O=C(NCc1ccnc(Cl)c1)n1c2c(c3ccc(Br)cc31)CN(C/C=C/c1ccc(F)c(F)c1)CC2 [Example 440, (E)-7-bromo-N-((2-chloropyridin-4-yl)methyl)-2-(3-(3,4-difluorophenyl)allyl)-1,2,3,4-tetrahydro-5H-pyrido[4,3-b]indole-5-carboxamide] | 1.8 µM | 10 µM
N#Cc1ccc(/C=C/CN2CCc3c(c4ccc(Br)cc4n3C(=O)NCc3ccnc(Cl)c3)C2)cc1 [Example 441, (E)-7-bromo-N-((2-chloropyridin-4-yl)methyl)-2-(3-(4-cyanophenyl)allyl)-1,2,3,4-tetrahydro-5H-pyrido[4,3-b]indole-5-carboxamide] | > 100 µM | 4.4 µM
N#Cc1ccc(/C=C/CN2CCc3c(c4c(Br)cccc4n3C(=O)NCc3ccnc(Cl)c3)C2)cc1 [Example 442, (E)-9-bromo-N-((2-chloropyridin-4-yl)methyl)-2-(3-(4-cyanophenyl)allyl)-1,2,3,4-tetrahydro-5H-pyrido[4,3-b]indole-5-carboxamide] | 10 µM | 10 µM
O=C(NCc1ccnc(Cl)c1)n1c2c(c3ccc(Br)cc31)CN(C/C=C/c1ccc(Cl)cc1)CC2 [Example 443, (E)-7-bromo-2-(3-(4-chlorophenyl)allyl)-N-((2-chloropyridin-4-yl)methyl)-1,2,3,4-tetrahydro-5H-pyrido[4,3-b]indole-5-carboxamide] | 0.5 µM | 3.3 µM
CSc1ccc2c(c1)c1c(n2C(=O)NCc2ccnc(Cl)c2)CCN(C/C=C/c2ccc(Cl)c(F)c2)C1 [Example 445, (E)-2-(3-(4-chloro-3-fluorophenyl)allyl)-N-((2-chloropyridin-4-yl)methyl)-8-(methylthio)-1,2,3,4-tetrahydro-5H-pyrido[4,3-b]indole-5-carboxamide] | 0.5 µM | 33 µM
CSc1ccc2c(c1)c1c(n2C(=O)NCc2ccnc(Cl)c2)CCN(C/C=C/c2ccc(F)c(F)c2)C1 [Example 446, (E)-N-((2-chloropyridin-4-yl)methyl)-2-(3-(3,4-difluorophenyl)allyl)-8-(methylthio)-1,2,3,4-tetrahydro-5H-pyrido[4,3-b]indole-5-carboxamide] | 0.5 µM | 3.3 µM
CSc1ccc2c(c1)c1c(n2C(=O)NCc2ccnc(Cl)c2)CCN(C/C=C/c2ccc(Cl)cc2)C1 [Example 447, (E)-2-(3-(4-chlorophenyl)allyl)-N-((2-chloropyridin-4-yl)methyl)-8-(methylthio)-1,2,3,4-tetrahydro-5H-pyrido[4,3-b]indole-5-carboxamide] | 0.5 µM | 3.3 µM
CSc1ccc2c(c1)c1c(n2C(=O)NCc2ccnc(Cl)c2)CCN(C/C=C/c2ccc(F)cc2)C1 [Example 448, (E)-N-((2-chloropyridin-4-yl)methyl)-2-(3-(4-fluorophenyl)allyl)-8-(methylthio)-1,2,3,4-tetrahydro-5H-pyrido[4,3-b]indole-5-carboxamide] | 1.3 µM | 3.3 µM
N#Cc1ccc2c(c1)c1c(n2C(=O)NCc2ccnc(O)c2)CCN(C/C=C/c2ccc(Cl)c(Cl)c2)C1 [Example 449, (E)-8-cyano-2-(3-(3,4-dichlorophenyl)allyl)-N-((2-hydroxypyridin-4-yl)methyl)-1,2,3,4-tetrahydro-5H-pyrido[4,3-b]indole-5-carboxamide] | > 100 µM | > 100 µM
N#Cc1ccc2c(c1)c1c(n2C(=O)NCc2ccnc(O)c2)CCN(C/C=C/c2cc(F)c(Cl)c(F)c2)C1 [Example 450, (E)-2-(3-(4-chloro-3,5-difluorophenyl)allyl)-8-cyano-N-((2-hydroxypyridin-4-yl)methyl)-1,2,3,4-tetrahydro-5H-pyrido[4,3-b]indole-5-carboxamide] | 0.5 µM | 100 µM
N#Cc1ccc2c(c1)c1c(n2C(=O)NCc2ccnc(O)c2)CCN(C/C=C/c2ccc(Br)cc2F)C1 [Example 451, (E)-2-(3-(4-bromo-2-fluorophenyl)allyl)-8-cyano-N-((2-hydroxypyridin-4-yl)methyl)-1,2,3,4-tetrahydro-5H-pyrido[4,3-b]indole-5-carboxamide] | > 100 µM | 3.3 µM
N#Cc1ccc2c(c1)c1c(n2C(=O)NCc2ccnc(O)c2)CCN(C/C=C/c2cc(Cl)c(F)c(Cl)c2)C1 [Example 452, (E)-8-cyano-2-(3-(3,5-dichloro-4-fluorophenyl)allyl)-N-((2-hydroxypyridin-4-yl)methyl)-1,2,3,4-tetrahydro-5H-pyrido[4,3-b]indole-5-carboxamide] | > 100 µM | > 100 µM
O=C(NCc1ccnc(O)c1)n1c2c(c3cc(C(F)(F)F)ccc31)CN(C/C=C/c1ccc(F)cc1F)CC2 [Example 453, (E)-2-(3-(2,4-difluorophenyl)allyl)-N-((2-hydroxypyridin-4-yl)methyl)-8-(trifluoromethyl)-1,2,3,4-tetrahydro-5H-pyrido[4,3-b]indole-5-carboxamide] | > 100 µM | 10 µM
N#Cc1ccc(/C=C/CN2CCc3c(c4cc(C(F)(F)F)ccc4n3C(=O)NCc3ccnc(O)c3)C2)cc1 [Example 454, (E)-2-(3-(4-cyanophenyl)allyl)-N-((2-hydroxypyridin-4-yl)methyl)-8-(trifluoromethyl)-1,2,3,4-tetrahydro-5H-pyrido[4,3-b]indole-5-carboxamide] | > 100 µM | > 100 µM
CS(=O)(=O)c1ccc2c(c1)c1c(n2C(=O)NCc2ccnc(Cl)c2)CCN(C/C=C/c2ccc(Cl)c(F)c2)C1 [Example 455, (E)-2-(3-(4-chloro-3-fluorophenyl)allyl)-N-((2-chloropyridin-4-yl)methyl)-8-(methylsulfonyl)-1,2,3,4-tetrahydro-5H-pyrido[4,3-b]indole-5-carboxamide] | 0.7 µM | 5.7 µM
CS(=O)(=O)c1ccc2c(c1)c1c(n2C(=O)NCc2ccnc(Cl)c2)CCN(C/C=C/c2ccc(F)cc2F)C1 [Example 456, (E)-N-((2-chloropyridin-4-yl)methyl)-2-(3-(2,4-difluorophenyl)allyl)-8-(methylsulfonyl)-1,2,3,4-tetrahydro-5H-pyrido[4,3-b]indole-5-carboxamide] | 1.3 µM | 10 µM
CS(=O)(=O)c1ccc2c(c1)c1c(n2C(=O)NCc2ccnc(Cl)c2)CCN(C/C=C/c2ccc(Cl)cc2)C1 [Example 457, (E)-2-(3-(4-chlorophenyl)allyl)-N-((2-chloropyridin-4-yl)methyl)-8-(methylsulfonyl)-1,2,3,4-tetrahydro-5H-pyrido[4,3-b]indole-5-carboxamide] | 1 µM | 10 µM
CS(=O)(=O)c1ccc2c(c1)c1c(n2C(=O)NCc2ccnc(Cl)c2)CCN(C/C=C/c2ccc(Cl)c(Cl)c2)C1 [Example 458, (E)-N-((2-chloropyridin-4-yl)methyl)-2-(3-(3,4-dichlorophenyl)allyl)-8-(methylsulfonyl)-1,2,3,4-tetrahydro-5H-pyrido[4,3-b]indole-5-carboxamide] | 5.7 µM | 3.3 µM
N#Cc1ccc(-c2ccc3c(c2)c2c(n3C(=O)NCc3ccnc(F)c3)CCN(C/C=C/c3ccc(Cl)cc3)C2)cn1 [Example 460, (E)-2-(3-(4-chlorophenyl)allyl)-8-(6-cyanopyridin-3-yl)-N-((2-fluoropyridin-4-yl)methyl)-1,2,3,4-tetrahydro-5H-pyrido[4,3-b]indole-5-carboxamide] | > 100 µM | 57.4 µM
O=C(NCc1ccnc(F)c1)n1c2c(c3cc(-c4ccc(Cl)cc4)ccc31)CN(C/C=C/c1ccc(Cl)cc1)CC2 [Example 461, (E)-8-(4-chlorophenyl)-2-(3-(4-chlorophenyl)allyl)-N-((2-fluoropyridin-4-yl)methyl)-1,2,3,4-tetrahydro-5H-pyrido[4,3-b]indole-5-carboxamide] | 33 µM | > 100 µM
O=C(NCc1ccnc(F)c1)n1c2c(c3cc(-c4cccc(Cl)c4)ccc31)CN(C/C=C/c1ccc(Cl)cc1)CC2 [Example 462, (E)-8-(3-chlorophenyl)-2-(3-(4-chlorophenyl)allyl)-N-((2-fluoropyridin-4-yl)methyl)-1,2,3,4-tetrahydro-5H-pyrido[4,3-b]indole-5-carboxamide] | > 100 µM | > 100 µM
O=C(NCc1ccnc(F)c1)n1c2c(c3cc(-c4ccc(F)cc4)ccc31)CN(C/C=C/c1ccc(Cl)cc1)CC2 [Example 463, (E)-2-(3-(4-chlorophenyl)allyl)-8-(4-fluorophenyl)-N-((2-fluoropyridin-4-yl)methyl)-1,2,3,4-tetrahydro-5H-pyrido[4,3-b]indole-5-carboxamide] | > 100 µM | > 100 µM
